Results: patent publication US7632506B2, “Identification of new NY-ESO-1 epitopes recognized by CD4+ T-cells” (Ludwig Institute for Cancer Research, priority 2005, dated 2009)

Legend:
[1] = tested on: CD4+ T cells; experiment: IFN-γ ELISPOT of CD4+ T cells presensitized with overlapping NY-ESO-1 18 mer peptides; type: cell-based, human; details: patient NW2337, limiting dilution
[2] = tested on: CD4+ T cells; experiment: as above; type: cell-based, human
Procedure: Peripheral blood mono-nuclear cells (“PBMCs”) were separated from heparinized blood via Ficoll density gradient separation, using standard, art recognized techniques. Once this was done, the CD4^+ and CD8^+ T cells were separated from each other using magnetic cell sorting techniques which are well known to the art, producing CD4^+, CD8^+, and CD4^−/CD8^− cell populations.
A series of 18 mer peptides were prepared from the amino acid sequence of NY-ESO-1 as set forth in, e.g., U.S. Pat. No. 5,804,381, incorporated by reference. The peptides were designed to cover the entire sequence of NY-ESO-1, and to provide overlap.
The peptides were then individually pulsed to antigen presenting cells (“APCs”). These were CD4^−/CD8^− PBMCs taken from the same subjects who had provided the CD4^+ and CD8^+ cells. These APCs were irradiated with 3000 rads, and then pulsed with one of the peptides, at a concentration of 10 μg/ml, for 1 hour, in serum free medium. These APCs were then washed, and added to the CD4^+ cells. In the pulsing experiments, the peptides were solubilized in DMSO (100%) and then diluted with PBS to a final concentration of 10% DMSO. The CD4^+ cells had been cultured in a medium of L-arginine (242 mg/l), L-asparagene (50 mg/l), L-glutamine (300 mg/l), penicillin (10 IU/ml), streptomycin (100 μg/ml), 1% non-essential amino acids, 10% HS, and 10 ng/ml of recombinant human IL-2.
The CD4^+ T cells were restimulated weekly with 1 μg/ml of the peptide being used. On day 12, each CD4^+ culture was assayed for NY-ESO-1 peptide recognition, using the ELISPOT assay of lager, et al., Proc. Natl. Acad. Sci. USA, 97(9):4760-4765 (2000), incorporated by reference. To elaborate on this procedure, flat-bottomed, 96-well nitrocellulose plates were coated with 5 μg/ml of anti-interferon-gamma antibody and incubated overnight at 4° C. After washing with PBS, plates were blocked with 10% human serum (HS) for 1 hour at 37° C. Depending on the effector:target ratio used, various numbers of presensitized CD4^+ T-cells were added to each well along with 5×10^4 autologous peptide pulsed EBV transfected B cells (“EBV-B cells”) serving as target cells and incubated for 16 hours at 37° C. in TCM without IL-2. Plates were then washed extensively (6 times with a solution of 0.05% Tween 20/PBS), and biotinylated anti-interferon-gamma detection antibody was added at a concentration of 0.5 μg/ml. After incubation for 2 h at 37° C., plates were washed and incubated with ABC-AP Vectastain for 1 hour. Plates were washed again and developed with substrate (BCIP/NPT) until blue spots were visible. The number of blue spots/well represented the proportion of NY-ESO-1 specific CD4^+ T-cells/well was finally counted under the microscope.
The EBV-B-cells were generated from each patients' PBMC following standard methods and maintained in RPMI 1640 medium supplemented with 10 mM Hepes buffer, L-arginine (242 mg/l), L-asparagine (50mg/l), L-glutamine (300 mg/l), penicillin (10 IU/ml), streptomycin (100 μg/ml), 1% non-essential amino acids, and 10% FCS. […] PBMC's or EBV-B-cells were molecularly typed for HLA expression using standard procedures.

P55-72: synthetic 18 mer peptide, amino acids 55-72 of NY-ESO-1 (GPGGGAPRGPHGGAASGL; UniProt P78358 55-72, looked up, fragment) [Peptide P55-72]
CD4+ T-cell clones generated by stimulation with peptide [1]: 53 | Patient T cells 1 ([2]; IFN-γ ELISPOT, day 12, CD4+ T cells of patient 1, autologous peptide pulsed EBV-B cells as targets): + (+ indicates >50 spots (all + scores indicated were >100 spots)) | Patient T cells 2 ([2]; IFN-γ ELISPOT, day 12, CD4+ T cells of patient 2, autologous peptide pulsed EBV-B cells as targets): + (+ indicates >50 spots (all + scores indicated were >100 spots)) | Patient T cells 3 ([2]; IFN-γ ELISPOT, day 12, CD4+ T cells of patient 3, autologous peptide pulsed EBV-B cells as targets): + (+ indicates >50 spots (all + scores indicated were >100 spots)) | patients whose CD4+ T cells recognized the peptide ([2]; three patients tested): all three patients
